One test addresses HDAC6 human recombinant (Homo sapiens (Human), UniProt Q9UBN7). Nature of the test: HDAC6 enzyme activity inhibition (fluorimetric, in vitro). Particulars: samples at 0.1, 1, 10, 100 and 1000 nM; 37° C. 60 minutes. Format: biochemical. As to the method: (§1) A HDAC enzyme inhibitory capacity of a test material was measured by using HDAC1 Fluorimetric Drug Discovery Assay Kit (Enzolifesciences: BML-AK511) and HDAC6 human recombinant (Calbiochem: 382180). For a HDAC1 assay, samples were treated at a concentration of 100, 1000 and 10000 nM. For a HDAC6 assay, samples were treated at a concentration of 0.1, 1, 10, 100 and 1000 nM. After the above sample treatment, a reaction was continued at 37° C. for 60 minutes, treated with a developer, and subjected to reaction at 37° C. for 30 minutes, after which fluorescence intensity (Ex 390, Em 460) was measured by using FlexStatin3 (Molecular device).

A further test deals with HDAC1 (Homo sapiens (Human), UniProt Q13547). Nature of the test: HDAC1 enzyme activity inhibition (HDAC1 Fluorimetric Drug Discovery Assay Kit). The note with it: samples at 100, 1000 and 10000 nM; 37° C. 60 minutes. It is filed as biochemical. The protocol:
as §1

One may read the IC50 as the concentration needed to halve the response being measured.

Chain of HDAC6 human recombinant (Q9UBN7 whole entry): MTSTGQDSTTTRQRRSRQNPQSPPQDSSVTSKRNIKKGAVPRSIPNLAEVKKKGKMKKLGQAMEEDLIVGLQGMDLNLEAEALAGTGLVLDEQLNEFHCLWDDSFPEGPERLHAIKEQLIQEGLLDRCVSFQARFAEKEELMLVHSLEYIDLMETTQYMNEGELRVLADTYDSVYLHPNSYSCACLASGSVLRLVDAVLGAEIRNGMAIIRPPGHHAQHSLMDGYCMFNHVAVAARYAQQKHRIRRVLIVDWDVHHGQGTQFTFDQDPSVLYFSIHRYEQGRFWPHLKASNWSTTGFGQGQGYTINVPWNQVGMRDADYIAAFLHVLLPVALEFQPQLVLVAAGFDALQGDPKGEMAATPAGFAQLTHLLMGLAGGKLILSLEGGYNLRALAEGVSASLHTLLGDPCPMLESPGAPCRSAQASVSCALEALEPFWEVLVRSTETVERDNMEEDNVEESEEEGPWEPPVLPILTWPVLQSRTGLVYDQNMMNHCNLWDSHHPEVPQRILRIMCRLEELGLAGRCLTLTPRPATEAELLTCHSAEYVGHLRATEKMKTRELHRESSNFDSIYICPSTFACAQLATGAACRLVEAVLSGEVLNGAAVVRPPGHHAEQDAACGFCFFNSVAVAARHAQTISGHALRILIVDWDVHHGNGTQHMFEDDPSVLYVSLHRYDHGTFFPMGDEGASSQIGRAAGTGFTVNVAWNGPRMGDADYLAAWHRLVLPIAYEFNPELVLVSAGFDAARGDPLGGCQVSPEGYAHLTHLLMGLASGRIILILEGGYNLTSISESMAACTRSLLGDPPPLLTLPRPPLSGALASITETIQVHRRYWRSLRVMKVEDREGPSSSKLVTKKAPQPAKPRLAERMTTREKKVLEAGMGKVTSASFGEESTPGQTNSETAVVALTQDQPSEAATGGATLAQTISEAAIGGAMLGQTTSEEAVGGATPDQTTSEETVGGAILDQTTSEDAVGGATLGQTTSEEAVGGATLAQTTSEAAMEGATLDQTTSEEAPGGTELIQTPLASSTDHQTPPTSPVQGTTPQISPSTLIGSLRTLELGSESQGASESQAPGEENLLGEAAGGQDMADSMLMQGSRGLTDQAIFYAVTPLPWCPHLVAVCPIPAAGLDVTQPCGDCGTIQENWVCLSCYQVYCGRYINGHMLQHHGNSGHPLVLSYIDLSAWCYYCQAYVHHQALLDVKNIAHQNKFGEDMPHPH
Chain of HDAC1 (Q13547 whole entry): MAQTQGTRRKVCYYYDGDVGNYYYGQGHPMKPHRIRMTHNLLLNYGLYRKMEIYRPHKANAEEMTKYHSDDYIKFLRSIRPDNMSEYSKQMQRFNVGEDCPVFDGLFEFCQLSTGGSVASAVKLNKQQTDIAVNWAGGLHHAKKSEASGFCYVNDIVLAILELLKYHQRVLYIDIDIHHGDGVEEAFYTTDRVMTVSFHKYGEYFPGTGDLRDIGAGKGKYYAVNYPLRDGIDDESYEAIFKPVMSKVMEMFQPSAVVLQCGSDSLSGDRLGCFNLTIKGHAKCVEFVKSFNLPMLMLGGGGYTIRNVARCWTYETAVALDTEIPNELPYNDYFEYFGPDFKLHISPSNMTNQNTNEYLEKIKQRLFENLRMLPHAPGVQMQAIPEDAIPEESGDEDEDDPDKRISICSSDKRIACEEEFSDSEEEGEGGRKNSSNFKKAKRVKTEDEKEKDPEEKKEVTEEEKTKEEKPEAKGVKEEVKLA

Consider `CC1(C)C(=O)N(c2ccccc2)C(=O)N1Cc1ccc(-c2nnc(C(F)F)o2)cc1F` [Compound 1, 1-(4-(5-(difluoromethyl)-1,3,4-oxadiazol-2-yl)-2-fluorobenzyl)-5,5-dimethyl-3-phenylimidazolidin-2,4-dione], for which the IC50 was 665 nM on HDAC6 human recombinant and over 10000 nM against HDAC1.
Consider `CC1(C)C(=O)N(c2ccccc2)C(=O)N1Cc1ccc(-c2nnc(C(F)(F)F)o2)cc1F` [Compound 2, 1-(2-fluoro-4-(5-(trifluoromethyl)-1,3,4-oxadiazol-2-yl)benzyl)-5,5-dimethyl-3-phenylimidazolidin-2,4-dione], for which the IC50 is 958 nM at HDAC6 human recombinant and over 10000 nM at HDAC1.
For `O=C1CN(c2ccccc2)C(=O)N1Cc1ccc(-c2nnc(C(F)F)o2)cc1F` [Compound 3, 3-(4-(5-(difluoromethyl)-1,3,4-oxadiazol-2-yl)-2-fluorobenzyl)-1-phenylimidazolidin-2,4-dione], in that order: 219 nM and over 10000 nM.
Consider `O=C1CN(c2ccccc2)C(=O)N1Cc1ccc(-c2nnc(C(F)F)o2)cn1` [Compound 4, 3-((5-(5-(difluoromethyl)-1,3,4-oxadiazol-2-yl)pyridin-2-yl)methyl)-1-phenylimidazolidin-2,4-dione], for which the figures for the IC50 at HDAC6 human recombinant and against HDAC1 were 99 nM and over 10000 nM, respectively.
As for `CC(C)(C)OC(=O)N1CCC2(CC1)C(=O)N(Cc1ccc(-c3nnc(C(F)F)o3)cn1)C(=O)N2c1cccc(F)c1` [Compound 5, tert-butyl 3-((5-(5-(difluoromethyl)-1,3,4-oxadiazol-2-yl)pyridin-2-yl)methyl)-1-(3-fluorophenyl)-2,4-dioxo-1,3,8-triazaspiro[4.5]decan-8-carboxylate], the IC50 is 206 nM at HDAC6 human recombinant and over 10000 nM against HDAC1.
Consider `CN1CCC2(CC1)C(=O)N(Cc1ccc(-c3nnc(C(F)F)o3)cn1)C(=O)N2c1cccc(F)c1` [Compound 6, 3-((5-(5-(difluoromethyl)-1,3,4-oxadiazol-2-yl)pyridin-2-yl)methyl)-1-(3-fluorophenyl)-8-methyl-1,3,8-triazaspiro[4.5]decan-2,4-dione], for which the IC50 on HDAC6 human recombinant was 104 nM; against HDAC1, over 10000 nM.
For `O=C1N(Cc2ccc(-c3nnc(C(F)F)o3)cn2)C(=O)C2(CCN(C3COC3)CC2)N1c1cccc(F)c1` [Compound 7, 3-((5-(5-(difluoromethyl)-1,3,4-oxadiazol-2-yl)pyridin-2-yl)methyl)-1-(3-fluorophenyl)-8-(oxetan-3-yl)-1,3,8-triazaspiro[4.5]decan-2,4-dione], in that order: 100 nM and over 10000 nM.
For `CC(C)N1CCC2(CC1)C(=O)N(Cc1ccc(-c3nnc(C(F)F)o3)cn1)C(=O)N2c1cccc(F)c1` [Compound 8, 3-((5-(5-(difluoromethyl)-1,3,4-oxadiazol-2-yl)pyridin-2-yl)methyl)-1-(3-fluorophenyl)-8-isopropyl-1,3,8-triazaspiro[4.5]decan-2,4-dione], in that order: 99 nM and over 10000 nM.
Turning to `O=C1CN(c2ccccc2)C(=O)N1Cc1ncc(-c2nnc(C(F)F)o2)cn1` [Compound 9, 3-((5-(5-(difluoromethyl)-1,3,4-oxadiazol-2-yl)pyrimidin-2-yl)methyl)-1-phenylimidazolidin-2,4-dione], the IC50 is 147 nM at HDAC6 human recombinant and over 10000 nM against HDAC1.
The like results for `CC1(C)C(=O)N(Cc2ccc(-c3nnc(C(F)F)o3)cn2)C(=O)N1c1cccc(F)c1` [Compound 10, 3-((5-(5-(difluoromethyl)-1,3,4-oxadiazol-2-yl)pyridin-2-yl)methyl)-1-(3-fluorophenyl)-5,5-dimethylimidazolidin-2,4-dione] were, in that order, 53 nM and over 10000 nM.
In the case of `CC1(C)C(=O)N(Cc2ccc(-c3nnc(C(F)F)o3)cn2)C(=O)N1c1cccc(Br)c1` [Compound 11, 1-(3-bromophenyl)-3-((5-(5-(difluoromethyl)-1,3,4-oxadiazol-2-yl)pyridin-2-yl)methyl)-5,5-dimethylimidazolidin-2,4-dione], the IC50 on HDAC6 human recombinant was 56 nM; at HDAC1 it was over 10000 nM.
Turning to `CC1(C)C(=O)N(Cc2ccc(-c3nnc(C(F)F)o3)cn2)C(=O)N1c1ccc(F)cc1` [Compound 12, 3-((5-(5-(difluoromethyl)-1,3,4-oxadiazol-2-yl)pyridin-2-yl)methyl)-1-(4-fluorophenyl)-5,5-dimethylimidazolidin-2,4-dione], the IC50 is 60 nM on HDAC6 human recombinant and over 10000 nM against HDAC1.
As for `CC1(C)C(=O)N(Cc2ccc(-c3nnc(C(F)F)o3)cn2)C(=O)N1c1c(F)cccc1F` [Compound 13, 3-((5-(5-(difluoromethyl)-1,3,4-oxadiazol-2-yl)pyridin-2-yl)methyl)-1-(2,6-difluorophenyl)-5,5-dimethylimidazolidin-2,4-dione], the IC50 at HDAC6 human recombinant was 27 nM; on HDAC1, over 10000 nM.
As for `CC1(C)C(=O)N(Cc2ccc(-c3nnc(C(F)F)o3)cn2)C(=O)N1c1ccc(F)cc1F` [Compound 14, 3-((5-(5-(difluoromethyl)-1,3,4-oxadiazol-2-yl)pyridin-2-yl)methyl)-1-(2,4-difluorophenyl)-5,5-dimethylimidazolidin-2,4-dione], the IC50 was 56 nM on HDAC6 human recombinant and over 10000 nM against HDAC1.
Regarding `CC1(C)C(=O)N(Cc2ccc(-c3nnc(C(F)F)o3)cn2)C(=O)N1c1cccc(F)c1F` [Compound 15, 3-((5-(5-(difluoromethyl)-1,3,4-oxadiazol-2-yl)pyridin-2-yl)methyl)-1-(2,3-difluorophenyl)-5,5-dimethylimidazolidin-2,4-dione], the IC50 is 43 nM on HDAC6 human recombinant and over 10000 nM at HDAC1.
The like results for `CC1(C)C(=O)N(Cc2ccc(-c3nnc(C(F)F)o3)cn2)C(=O)N1c1ccc(F)c(F)c1` [Compound 16, 3-((5-(5-(difluoromethyl)-1,3,4-oxadiazol-2-yl)pyridin-2-yl)methyl)-1-(3,4-difluorophenyl)-5,5-dimethylimidazolidin-2,4-dione] were, in that order, 142 nM and over 10000 nM.
The like results for `CC1(C)C(=O)N(Cc2ccc(-c3nnc(C(F)F)o3)cn2)C(=O)N1c1cc(F)cc(F)c1` [Compound 17, 3-((5-(5-(difluoromethyl)-1,3,4-oxadiazol-2-yl)pyridin-2-yl)methyl)-1-(3,5-difluorophenyl)-5,5-dimethylimidazolidin-2,4-dione] were, in that order, 69 nM and over 10000 nM.
As to `CC1(C)C(=O)N(Cc2ccc(-c3nnc(C(F)F)o3)cn2)C(=O)N1c1ccccc1` [Compound 18, 3-((5-(5-(difluoromethyl)-1,3,4-oxadiazol-2-yl)pyridin-2-yl)methyl)-5,5-dimethyl-1-phenylimidazolidin-2,4-dione], the IC50 is 79 nM at HDAC6 human recombinant and over 10000 nM on HDAC1.
For the molecule `CN1CC=C(c2cccc(N3C(=O)N(Cc4ccc(-c5nnc(C(F)F)o5)cn4)C(=O)C3(C)C)c2)CC1` [Compound 19, 3-((5-(5-(difluoromethyl)-1,3,4-oxadiazol-2-yl)pyridin-2-yl)methyl)-5,5-dimethyl-1-(3-(1-methyl-1,2,3,6-tetrahydropyridin-4-yl)phenyl)imidazolidin-2,4-dione], the IC50 was 85 nM at HDAC6 human recombinant and over 10000 nM at HDAC1.

Values taken from patent US20230295142A1, “NOVEL COMPOUNDS AS HISTONE DEACETYLASE 6 INHIBITOR, AND PHARMACEUTICAL COMPOSITION COMPRISING THE SAME” (CHONG KUN DANG PHARMACEUTICAL CORP., priority 2020, published 2023).
